Assay results reported in patent publication US20210009541A1, “FUNGICIDAL OXADIAZOLES” (Bayer Aktiengesellschaft, priority 2018, published 2021).
Like-named read-outs stand apart in the source and are kept apart here. Marks after values point to notes of the source that are not given here.

Assays:
[1] = LogP by HPLC on reversed phase columns (EEC directive 79/831 Annex V.A8); assay type: physicochemical; conditions: for chromatographic logP: reversed phase HPLC column
Description: [table] If more than one Log P value is available within the same method, all the values are given and separated by “+”. […] Lambda-max-values were determined using UV-spectra from 200 nm to 400 nm and the peak values of the chromatographic signals.

Phakosporra pachirrhizi = experiment: Example D: fungicidal activity against Phakosporra pachirrhizi (spore germination, 96-well imaging); assay type: cell-based; conditions: 30 ppm of active ingredient; wild-type spores, 4 hours at 21° C.; read-out: efficacy (inhibition of the fungal germination)
Description: Example D: Fungicidal Activity Against Phakosporra pachirrhizi
Cryo-conserved wild-type spores of the biotroph Phakosporra pachirrhizi are humidified in dedicated chamber overnight at 18° C. in the dark. The next day, a solution of spores at 7×10^3 sp/ml is prepared in a water based growth medium (DH2O+0.2 mM MOPS at pH 7+0.01% Tween 20) and spores are distributed in a 96-MTPS (final volume of 200 μL per well) thanks to a dispenser robot. Each molecule is tested at 10 doses (from 30 to 0.002 ppm final concentration) and accordingly 1.2 μL of each dilution is transferred in dedicated well to end-up with a final concentration of 0.6% DMSO. Wild-type spores and molecules are incubated for 4 hours at 21° C., and 6 images par well are then acquired with Transmitted Light images (Image Xpress Micro microscope, Molecular Devices, Objective 10λ, 6 images per well). Detection and quantification of the number of germinated spores per image is performed with a dedicated in-house developed algorithm (MetaXpress software, Molecular Devices).

[2] = system: Colletotrichum lindemuthianum; experiment: Example E: Colletotrichum lindemuthianum in vitro cell test; assay type: cell-based; conditions: 144 h, 20 ppm of active ingredient, liquid culture, 6 days incubation, read-out: efficacy (inhibition of fungal growth)
Description: Example E: Colletotrichum lindemuthianum In Vitro Cell Test
• Solvent: DMSO Culture medium: 14.6 g anhydrous D-glucose (VWR), 7.1 g Mycological Peptone (Oxoid), 1.4 g granulated Yeast Extract (Merck), QSP 1 liter • Inoculum: spores suspension
Active ingredients were solubilized in DMSO and the solution used to prepare the required range of concentrations. The final concentration of DMSO used in the assay was 1%.
A spore suspension of C. lindemuthianum was prepared and diluted to the desired spore density.
The active ingredients were evaluated for their ability to inhibit spores germination and mycelium growth in liquid culture assay. The compounds were added in the desired concentration to the culture medium with spores. After 6 days incubation, fungi-toxicity of compounds was determined by spectrometric measurement of mycelium growth. Inhibition of fungal growth was determined by comparing the absorbance values in wells containing the active ingredient with the absorbance in control wells without active ingredient.

[3] = method [a]: LC-UV, acidic range, 0.1% formic acid in water and acetonitrile as eluent

| LogP [1] | Structure (SMILES) | further results |
| --- | --- | --- |
| 2.71^[a] | CC(=O)N1CCc2cc(-c3noc(C(F)(F)F)n3)ccc2C1 [Compound I-049] |  |
| 3.62^[a] | ON=C1CCCc2cc(-c3noc(C(F)(F)F)n3)ccc21 [Compound I-001] |  |
| 3.41^[a] | O=C(c1cnc2ccc(-c3noc(C(F)(F)F)n3)cn12)C(F)(F)F [Compound I-035] |  |
| 4.03^[a] | FC(F)(F)c1nc(-c2ccc3nn(Cc4ccccc4)cc3c2)no1 [Compound I-012] |  |
| 2.61^[a] | Fc1cc2[nH]ncc2cc1-c1noc(C(F)(F)F)n1 [Compound I-061] |  |
| 3.83^[a] | COC(=O)N1CCc2ccc(-c3noc(C(F)(F)Cl)n3)cc2C1 [Compound I-026] |  |
| 2.32^[a] | CC(=O)Nc1ccc(-c2noc(C(F)(F)F)n2)c2c1CCO2 [Compound I-053] |  |
| 4.03^[a] | COC(=O)N1CCCc2cc(-c3noc(C(F)(F)F)n3)ccc21 [Compound I-028] |  |
| 4.34^[a] | FC(F)(F)c1nc(-c2ccc3cnn(Cc4ccccc4)c3c2)no1 [Compound I-007] |  |
| 3.31^[a] | O=C(C1CC1)N1CCc2cc(-c3noc(C(F)(F)F)n3)ccc2C1 [Compound I-047] |  |
| 4.03^[a] | FC(F)(F)c1nc(-c2ccc3cn(Cc4ccccc4)nc3c2)no1 [Compound I-008] |  |
| 2.78^[a] | Fc1cc2[nH]ncc2cc1-c1noc(C(F)(F)Cl)n1 [Compound I-062] |  |
| 2.75^[a] | FC(F)(F)c1nc(-c2ccc3ncc(Br)n3c2)no1 [Compound I-036] |  |
| 2.78^[a] | FC(F)(F)c1nc(-c2cc(Cl)c3nn[nH]c3c2)no1 [Compound I-044] |  |
| 1.86^[a] | Cn1cnc2cc(-c3noc(C(F)(F)Cl)n3)ccc21 [Compound I-060] |  |
| 2.31^[a] | Nc1cc2cc(-c3noc(C(F)(F)F)n3)ccc2cn1 [Compound I-055] |  |

| LogP [1] | Structure (SMILES) | further results |
| --- | --- | --- |
| 2.18^[a] | COCCNC(=O)c1cn2cc(-c3noc(C(F)(F)F)n3)ccc2n1 [Compound I-037] |  |
| 3.63^[a] | COC(=O)N1CCc2cc(-c3noc(C(F)(F)F)n3)ccc2C1 [Compound I-048] |  |
| 4.28^[a] | Fc1cc2c(cnn2Cc2ccccc2)cc1-c1noc(C(F)(F)F)n1 [Compound I-064] |  |
| 3.23^[a] | FC(F)(Cl)c1nc(-c2ccc3ncn(Cc4ccccc4)c3c2)no1 [Compound I-058] |  |
| 1.60^[a] | CCn1c(C)nc2cc(-c3noc(C(F)(F)F)n3)ccc21 [Compound I-045] |  |
| 3.45^[a] | COC(=O)Nc1cc2cc(-c3noc(C(F)(F)F)n3)ccc2cn1 [Compound I-051] |  |
| 4.11^[a] | Fc1cc2nn(Cc3ccccc3)cc2cc1-c1noc(C(F)(F)Cl)n1 [Compound I-066] |  |
| 2.90^[a] | CC(=O)Nc1cc2cc(-c3noc(C(F)(F)F)n3)ccc2cn1 [Compound I-054] |  |
| 4.39^[a] | FC(F)(F)c1nc(-c2ccc3c(cnn3Cc3ccccc3)c2)no1 [Compound I-009] |  |
| 2.84^[a] | FC(F)(Cl)c1nc(-c2ccc3[nH]ncc3c2)no1 [Compound I-063] |  |
| 3.92^[a] | Fc1cc2nn(Cc3ccccc3)cc2cc1-c1noc(C(F)(F)F)n1 [Compound I-065] |  |
| 3.68^[a] | FC(F)(Cl)c1nc(-c2ccc3cc[nH]c3c2)no1 [Compound I-046] |  |
| 3.83^[a] | O=C(Cc1ccccc1)N1CCc2cc(-c3noc(C(F)(F)F)n3)ccc2C1 [Compound I-050] |  |
| 2.59^[a] | CCOC(=O)c1cn2cc(-c3noc(C(F)(F)F)n3)ccc2n1 [Compound I-039] |  |
| 3.21^[a] | FC(F)(F)c1nc(-c2ccc3ncsc3c2)no1 [Compound I-043] |  |

Further lines, the molecule ahead of its results:

| Structure (SMILES) | LogP [1] | further results |
| --- | --- | --- |
| CON(C(=O)C1CC1)C1CCCc2cc(-c3noc(C(F)(F)F)n3)ccc21 (centres unmarked) [Compound I-019] | 4.44^[a] |  |
| Cn1cnc2ccc(-c3noc(C(F)(F)F)n3)cc21 [Compound I-004] | 1.67^[a] |  |
| COC(=O)N(OC)C1CCCc2cc(-c3noc(C(F)(F)F)n3)ccc21 (centres unmarked) [Compound I-024] | 4.34^[a] |  |
| CCC(=O)N1CCCc2cc(-c3noc(C(F)(F)F)n3)ccc21 [Compound I-030] | 3.68^[a] |  |
| CCn1cc2ccc(-c3noc(C(F)(F)F)n3)cc2n1 [Compound I-015] | 3.21^[a] |  |
| CCn1cc2cc(-c3noc(C(F)(F)F)n3)ccc2n1 [Compound I-010] | 3.15^[a] |  |
| CCN(OC)C1CCCc2cc(-c3noc(C(F)(F)F)n3)ccc21 (centres unmarked) [Compound I-023, N-Ethyl-O-methyl-N-{6-[5-(trifluoromethyl)-1,2,4-oxadiazol-3-yl]-1,2,3,4-tetrahydronaphthalen-1-yl}hydroxylamine] |  | chromatographic logP [1, 3]: 6.04 |
| O=C(Nc1ccc2cc(-c3noc(C(F)(F)F)n3)ccc2c1)C(F)(F)F [Compound I-057] |  | LogP [1, 3]: 4.27^[a] |
| CONC1CCCc2cc(-c3noc(C(F)(F)F)n3)ccc21 (centres unmarked) [Compound I-018, O-Methyl-N-{6-[5-(trifluoromethyl)-1,2,4-oxadiazol-3-yl]-1,2,3,4-tetrahydronaphthalen-1-yl}hydroxylamine] |  | chromatographic logP [1, 3]: 4.08 |
| Cn1cnc2cc(-c3noc(C(F)(F)F)n3)ccc21 [Compound I-003] | 1.70^[a] |  |
| COC(=O)N1CCc2ccc(-c3noc(C(F)(F)F)n3)cc2C1 [Compound I-032] | 3.59^[a] |  |
| CC(C)(C)OC(=O)N1CCc2cc(-c3noc(C(F)(F)F)n3)ccc2C1 [Compound I-038] | 4.93^[a] |  |
| FC(F)(F)c1nc(-c2ccc3[nH]ncc3c2)no1 [Compound I-005, 5-[5-(Trifluoromethyl)-1,2,4-oxadiazol-3-yl]-1H-indazole] |  | inhibition at 30 ppm (Phakosporra pachirrhizi): 90 to 100%; chromatographic logP [1, 3]: 2.68; inhibition at 20 ppm [2]: 90 to 100% |
| COCCn1ncc2cc(-c3noc(C(F)(F)F)n3)ccc21 [Compound I-013, 1-(2-Methoxyethyl)-5-[5-(trifluoromethyl)-1,2,4-oxadiazol-3-yl]-1H-indazole] |  | inhibition at 30 ppm (Phakosporra pachirrhizi): 80 to 89%; chromatographic logP [1, 3]: 3.31; inhibition at 20 ppm [2]: 80 to 89% |
| CCC(=O)Nc1cc2cc(-c3noc(C(F)(F)F)n3)ccc2cn1 [Compound I-052] | 3.33^[a] |  |
| Nc1ccc2cc(-c3noc(C(F)(F)F)n3)ccc2c1 [Compound I-042] | 3.47^[a] |  |
| FC(F)(F)c1nc(-c2ccc3ncn(Cc4ccccc4)c3c2)no1 [Compound I-059] | 3.06^[a] |  |

| Structure (SMILES) | LogP [1] | further results |
| --- | --- | --- |
| COCCn1cc2ccc(-c3noc(C(F)(F)F)n3)cc2n1 [Compound I-017] | 3.00^[a] |  |
| CC(=O)Nc1ccc(-c2noc(C(F)(F)F)n2)c2c1CCC2 [Compound I-056] | 3.28^[a] |  |
| COCCn1cc2cc(-c3noc(C(F)(F)F)n3)ccc2n1 [Compound I-014, 2-(2-Methoxyethyl)-5-[5-(trifluoromethyl)-1,2,4-oxadiazol-3-yl]-2H-indazole] |  | inhibition at 30 ppm (Phakosporra pachirrhizi): 70 to 79%; chromatographic logP [1, 3]: 2.96; inhibition at 20 ppm [2]: 80 to 89% |
| COC(=O)N1CCCc2cc(-c3noc(C(F)(F)Cl)n3)ccc21 [Compound I-027] | 4.27^[a] |  |
| COCCOC(=O)N(OC)C1CCCc2cc(-c3noc(C(F)(F)F)n3)ccc21 (centres unmarked) [Compound I-025] | 4.27^[a] |  |
| O=C(O)c1cn2cc(-c3noc(C(F)(F)F)n3)ccc2n1 [Compound I-040] | 1.41^[a] |  |
| CCC(=O)N1CCc2ccc(-c3noc(C(F)(F)Cl)n3)cc2C1 [Compound I-033] | 3.31^[a] |  |
| CCC(=O)N1CCCc2cc(-c3noc(C(F)(F)Cl)n3)ccc21 [Compound I-029] | 3.90^[a] |  |
| CCn1ncc2cc(-c3noc(C(F)(F)F)n3)ccc21 [Compound I-011] | 3.67^[a] |  |
| CCC(=O)N1CCc2ccc(-c3noc(C(F)(F)F)n3)cc2C1 [Compound I-031] | 3.11^[a] |  |
| FC(F)(F)c1nc(-c2ccc3cn[nH]c3c2)no1 [Compound I-006] | 2.70^[a] |  |
| FC(F)(Cl)c1nc(-c2ccc3nc[nH]c3c2)no1 [Compound I-041] | 1.57^[a] |  |
| CN(C)C(=O)Oc1ccc2cc(-c3noc(C(F)(F)F)n3)ccc2c1 [Compound I-034] | 4.18^[a] |  |
| COCCC(=O)N(OC)C1CCCc2cc(-c3noc(C(F)(F)F)n3)ccc21 (centres unmarked) [Compound I-021] | 3.96^[a] |  |
| CON(C(=O)c1ccccc1)C1CCCc2cc(-c3noc(C(F)(F)F)n3)ccc21 (centres unmarked) [Compound I-022] | 4.72^[a] |  |
| FC(F)(F)c1nc(-c2ccc3nc[nH]c3c2)no1 [Compound I-002] | 1.46^[a] |  |
| COCCn1ncc2ccc(-c3noc(C(F)(F)F)n3)cc21 [Compound I-016] | 3.35^[a] |  |
